Measurements published in paper PMC11775015, “Parishin B blocking TRIB3-AKT1 interaction inhibits breast cancer lung metastasis” (Frontiers in Pharmacology, 2025).

Biological target: T1, TRIB3 (Tribbles homolog 3) (Homo sapiens, UniProt Q96RU7)
T1 construct: endogenous untagged full-length protein in RIPA lysate of MDA-MB-231 cells, detected by Western blot (anti-TRIB3 Abcam ab75846); NP_066981.2 printed for the homology model
T1 sequence (Q96RU7 1-358): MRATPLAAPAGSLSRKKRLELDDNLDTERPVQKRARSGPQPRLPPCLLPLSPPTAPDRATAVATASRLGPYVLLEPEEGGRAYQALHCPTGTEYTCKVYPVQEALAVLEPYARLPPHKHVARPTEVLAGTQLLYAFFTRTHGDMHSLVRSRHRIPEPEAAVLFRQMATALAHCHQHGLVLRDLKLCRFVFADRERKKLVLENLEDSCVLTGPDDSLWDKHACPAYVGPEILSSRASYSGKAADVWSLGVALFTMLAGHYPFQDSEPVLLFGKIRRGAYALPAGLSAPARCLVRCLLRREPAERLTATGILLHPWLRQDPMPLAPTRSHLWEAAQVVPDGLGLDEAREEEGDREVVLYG
Test: CETSA (cell lysate, Western blot)
Assay type: biochemical
Conditions: 10 uM PB, 1 h, MDA-MB-231 RIPA lysate; 35-60 C for 10 min

With `O=C(O)CC(O)(CC(=O)OCc1ccc(O[C@@H]2O[C@H](CO)[C@@H](O)[C@H](O)[C@H]2O)cc1)C(=O)OCc1ccc(O[C@@H]2O[C@H](CO)[C@@H](O)[C@H](O)[C@H]2O)cc1` (stereo partly shown) [PB, Parishin B] the “CETSA (cell lysate, Western blot)” value was “PB enhances the thermal stability of TRIB3, resulting in improved thermal stabilization of TRIB3”.
